Drawing on patent publication US5028587A, “Mixed crystals of insulin and insulin derivatives” (Hoechst Aktiengesellschaft, priority 1987, dated 1991), this text covers activity, isoelectric point and in vivo half-life for four substances.

Data set [1] is described as follows: specific activity of the insulin used. Particulars: specific activity of the substance used for crystallization.
A short description of data set [2]: isoelectric point by isoelectric focusing. The class given is physicochemical. Particulars: pH. The text has this:
It is common to all these insulin derivatives that the additional positive charge(s) which is(are) located on the surface of the molecule confer on the molecule an isoelectric point which is displaced into the neutral range. Depending on the derivative, the isoelectric points measured by isoelectric focusing are from about 5.8 to about 8.5, in particular about 6.2 to about 8.2. This means that the derivatives are less soluble in the neutral range than is unmodified insulin, whose isoelectric point, and thus whose region of maximum insolubility, is at a pH of about 5.4, whereas it is normally in dissolved form in the neutral range.

For data set [3] the following is noted: cited from earlier work.

Take Arg2 -(B31-32) human insulin: the activity in data set [1] turned out to be 27 I.U./mg.
Still for that read-out and setting: as for Arg-B31 human insulin, the figure is 27 I.U./mg; as for Human insulin, 27 I.U./mg.
For the substance insulin [unmodified insulin], the isoelectric point entry in data set [2] was “about 5.4”. In data set [3], the in vivo half-life entry is on record as “about 7 minutes”.
